Results: patent US5688830A, “Treatment of neuropathic pain” (Syntex (U.S.A.) Inc., priority 1997, dated 1997)

Assays:
[1] = test system: [3H]STX binding site on the rat brain sodium channel; assay: [3H]STX binding assay
Description: The following assays characterize the interaction of the compounds of Formula I with ligand binding sites on voltage-gated sodium channels.
Frozen tissues were obtained from Pel-Freez Biologicals (Rogers, AR). Tissues were homogenized in 10 volumes of a Tris-sucrose buffer (10 mM Tris-HCl, 250 mM sucrose, pH 7.4 at 4° C.) using 10 strokes with a glass-glass, hand-held homogenizer. The homogenates were filtered through nylon mesh and then centrifuged at 1,000×g for 15 minutes. The pellets were resuspended in a Hepes buffer (50 mM Hepes, 130 mM choline chloride, 5 mM glucose, 5.4 mM KCl, pH 7.4 at 4° C.). The resuspended pellets were centrifuged at 1,000×g for 15 minutes, resuspended in a Hepes buffer (50 mM Hepes, 130 mM choline chloride, 5 mM glucose, 5.4 mM KCl, pH 7.4 at 25° C.) and, frozen at -70° C. until used in binding assays.
Membranes as prepared in Example 10A above were incubated at 37° C. for 30 minutes in 250 μl of a Hepes buffer (50 mM Hepes, 130 mM choline chloride, 5.5 mM glucose, 0.8 mM MgSO4, 5.4 mM KCl, pH 7.4 at 37° C.) containing 1 nM [^3 H]STX. Nonspecific binding was defined with 1 μM tetrodotoxin (TTX). […] The filters were rinsed with 3×1 ml ice cold H2 O and the bound radioactivity determined in a Packard 1900 liquid scintillation counter using Aquasol scintillation fluid.

neuropathic pain models = assay: Neuropathic pain models / standard assays (summary statements); format: in vivo; settings: vs methylamine and propylamine analogues and isomers thereof

CCNC(C)COc1c(C)cccc1C (racemic) [Formula I racemate, [2-(2,6-dimethylphenoxy)-1-methylethyl]-ethylamine]
affinity for the [3H]STX binding site [1]: no detectable affinity
activity in standard assays compared with close analogues (neuropathic pain models): unexpectedly more active
